Results on 10 molecules are retold here after PubChem BioAssay (NCI).

What all share (assay): DTP human tumour cell line panel, 48 h
In assay [1] the test system is OVCAR-5 ovarian.
Assay [2] has as its system U251 CNS.
The subject of assay [3] is UACC-62 melanoma.
In assay [4] the test system is OVCAR-3 ovarian.
Assay [5] deals with EKVX NSCLC.
Assay [6] relates to SF-295 CNS.
Assay [7] has as its system MDA-MB-435.
In assay [8] the test system is LOX IMVI melanoma.
The subject of assay [9] is SK-MEL-28 melanoma.
Assay [10] relates to RXF 393 renal.

Several values for one entry are separate records, joined by “and”; a condition that tells them apart may be missing. Equal entries are not always repeated.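 Step 1: Grow cells in 96-well plates. Step 2: Expose to compound for 48 hours at 5 concentrations. Step 3: Interpolate endpoints linearly; if unreached, use highest concentration. At the GI50, growth is halved. TGI marks complete inhibition of growth.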 Bounds are passed on as bounds.

For orientation: TGI means the concentration giving total growth inhibition. Turning to `CC(=O)NC1(C)CCC(C(C)(C)NC(C)=O)CC1` (stereo not given), the TGI in [1], in assay [2], in assay [3], in assay [4], in assay [5] and in assay [6] was more than 100 µM in each case. The TGI in assay [7], in assay [8], in [9] and in assay [10] was more than 100 µM throughout.
Consider `COc1ccc(C2SC(N)=Nc3c2c(C)nn3C(=O)c2ccncc2)cc1` (stereo not given), for which the TGI in assay [1], in assay [2], in assay [3], in assay [4], in [5] and in assay [6] was more than 100 µM each time. Moreover, the total growth inhibition concentration (TGI) in assay [7], in assay [8], in assay [9] and in assay [10] was more than 100 µM throughout.
A word on the GI50: it is the concentration giving 50% growth inhibition. Take `O=P(O)(O)OC1C(OP(=O)(O)O)C(OP(=O)(O)O)C(OP(=O)(O)O)C(OP(=O)(O)O)C1OP(=O)(O)O` (stereo not given): the GI50 in assay [1] is more than 2000 µM; in assay [2] it was more than 2000 µM; in assay [3], more than 2000 µM; in assay [4] it was more than 2000 µM; in assay [5] it was more than 100 µM; in assay [6], more than 2000 µM. The GI50 in [7] was more than 1770 µM; in assay [8] it was more than 2000 µM; in [9] it was more than 2000 µM; in [10], > 500 µM and 1720 µM. For the same molecule, the TGI in assay [1], in assay [2], in assay [3], in assay [4], in [5] and in [6] was more than 2000 µM each time. Moreover, the concentration for total growth inhibition (TGI) in assay [7], in assay [8], in [9] and in assay [10] was more than 2000 µM each time.
Turning to `C=C1C(=O)OC(CCCCCCCC)C1C(=O)O` (stereo not given), the GI50 is 17 µM in [1]; 15.6 µM in assay [2]; 12.1 µM in assay [3]; 7.66 µM in assay [4]; 16.1 µM in assay [5]; 17.6 µM in assay [6]. In addition, the GI50 in [7] is 17.6 µM; in [8], 13.5 µM; in assay [9], 15 µM; in assay [10], 10.7 µM. Also, the TGI came out at 31.8 µM in assay [1]; 29.4 µM in [2]; 24.7 µM in assay [3]; 19.5 µM in [4]; 31.2 µM in assay [5]; 37.6 µM in [6]. The TGI turned out to be 40.4 µM in [7], 26.9 µM in assay [8], 29.1 µM in [9] and 23.2 µM in assay [10].
`O=C(Nc1ccc(Cl)c(Cl)c1)Nc1ccc(Cl)c([N+](=O)[O-])c1`: the GI50 was 2.79 µM in assay [1]; 1.13 µM in assay [2]; 1.13 µM in assay [3]; 0.889 µM in assay [4]; 1.04 µM in [5]; 0.688 µM in assay [6]. The GI50 is 1.16 µM in assay [7], 1.03 µM in assay [8], 1.3 µM in assay [9] and 2.95 µM in [10]. Moreover, the total growth inhibition concentration (TGI) in assay [1] amounted to 9.29 µM; in [2], 4.3 µM; in [3] it was 4.15 µM; in assay [4] it was 3.66 µM; in [5], 7.35 µM; in assay [6], 2.54 µM. For the same molecule, the TGI in assay [7] worked out at 4.9 µM; in assay [8], 3.81 µM; in assay [9], 4.62 µM; in assay [10] it was 9.29 µM.
Take `CC/C=C/[C@@H]1C=C[C@@H]2CCC[C@H]2[C@@H]1CC[C@H](O)[C@H](C)N`: the GI50 in assay [1] was 1.69 µM; in assay [2], 1.53 µM; in assay [3], 1.61 µM; in assay [4], 1.59 µM; in [5] it was 15.2 µM; in assay [6], 1.75 µM. Moreover, the GI50 in assay [7] was 1.7 µM; in assay [8] it was 1.58 µM; in assay [9], 1.66 µM; in assay [10], 1.94 µM. For the same molecule, the TGI in assay [1] was 3.55 µM; in [2], 2.86 µM; in [3], 2.96 µM; in assay [4], 2.93 µM; in assay [5] it was 31.9 µM; in assay [6], 3.9 µM. The TGI in assay [7] was found to be 3.27 µM; in [8], 2.92 µM; in assay [9] it was 3.01 µM; in [10], 4.17 µM.
For the molecule `O=C1CCCC1C(=O)Nc1ccc2ccccc2c1` (stereo not given), the TGI in [1], in [2], in assay [3], in assay [4], in assay [5] and in assay [6] was more than 100 µM in each case. The total growth inhibition concentration (TGI) in assay [7], in assay [8], in assay [9] and in assay [10] was more than 100 µM each time.
As to `CN(NC(=O)/C(=C/c1ccc(O)cc1)NC(=O)c1ccccc1)c1ccnc2cc(Cl)ccc12`, the TGI worked out at 50.5 µM in [1]; 28.5 µM in assay [2]; 31.8 µM in assay [3]; 31.2 µM in [4]; 42.9 µM in assay [5]; 32.3 µM in assay [6]. The concentration for total growth inhibition (TGI) was 32.3 µM in [7], 37.2 µM in [8], 38.1 µM in assay [9] and 32 µM in [10].
For the molecule `N/C(=N\N=C\c1ccc2c(c1)OCO2)NO`, the TGI in [1] is more than 100 µM; in assay [2], more than 100 µM; in assay [3], 49.2 µM; in assay [4], 59.1 µM; in assay [5], more than 100 µM; in [6] it was more than 100 µM. The concentration for total growth inhibition (TGI) in [7] is more than 100 µM; in assay [8], 82.5 µM; in assay [9], more than 100 µM; in assay [10] it was more than 100 µM.
Take `O=C1CCC/C=C\C[C@H]2C=C(Cl)C(=O)/C2=C/C[C@H](CCCCC(F)(F)F)OC(=O)CCC/C=C\C[C@H]2C=C(Cl)C(=O)/C2=C/C[C@H](CCCCC(F)(F)F)O1`: the GI50 in assay [1] was 0.34 µM; in assay [2] it was 0.226 µM; in assay [3], 0.149 µM; in assay [4], 0.19 µM; in assay [5], 0.283 µM; in assay [6] it was 0.292 µM. Further, the GI50 in [7] was 0.147 µM; in assay [8] it was 0.128 µM; in assay [9] it was 0.166 µM; in [10], 0.134 µM. The TGI stood at 2.08 µM in [1]; 0.772 µM in [2]; 0.352 µM in assay [3]; 0.485 µM in assay [4]; 1.18 µM in assay [5]; 1.19 µM in [6]. For the same molecule, the concentration for total growth inhibition (TGI) in [7] was found to be 0.307 µM; in assay [8], 0.268 µM; in assay [9], 0.419 µM; in assay [10], 0.279 µM.
